Laboratory results: patent publication US11180462B2, “Microbiocidal oxadiazole derivatives” (SYNGENTA PARTICIPATIONS AG, priority 2015, dated 2021)

Key:
[1] = system: Puccinia recondita f. Sp. Tritici; assay: Fungicidal activity against Puccinia recondita f. sp. tritici / wheat / leaf disc preventative (brown rust); assay type: in vivo; conditions: foliar, 200 ppm in the applied formulation, wheat leaf segments, preventative, compared to untreated control leaf disks, read-out: disease control
In short: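 Preventative leaf-segment test, wheat cv. Kanzler on water agar. Spray compound at 200 ppm, inoculate with spores 1 day later; 19° C., 75% rh, 12/12 h light. Read-out: % disease control vs untreated, 7 to 9 days after application.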

[2] = system: Puccinia recondita f. Sp. Tritici; assay: Fungicidal activity against Puccinia recondita f. sp. tritici / wheat / leaf disc curative (brown rust); assay type: in vivo; conditions: foliar, 24 h, 200 ppm in the applied formulation, wheat leaf segments, curative (applied 1 day after inoculation), compared to untreated control leaf disks, read-out: disease control
In short: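 Curative leaf-segment test: compound diluted in water applied 1 day after spore inoculation of cv. Kanzler wheat segments on agar. Conditions 19° C, 75% RH, 12 h/12 h light cycle. Read-out: % disease control relative to untreated check, 6 to 8 days after application.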

Phakopsora Pachyrhizi = assay: Fungicidal activity against Phakopsora pachyrhizi / soybean / leaf disc preventative (Asian soybean rust); assay type: in vivo; conditions: foliar, 200 ppm in the applied formulation, soybean leaf disks, compared to untreated control leaf disks, read-out: disease control
In short: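 Preventative soybean leaf-disc test: discs on water agar sprayed with diluted formulated compound, inoculated one day later with spores on the lower surface. Held 24–36 h dark at 20°C, 75% rh, then 12 h light/day; percent disease control versus untreated discs scored 12–14 days after application.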

[3] = system: Glomerella lagenarium (Colletotrichum lagenarium); assay: Fungicidal activity against Glomerella lagenarium (Colletotrichum lagenarium) liquid culture / cucumber / preventative (anthracnose); assay type: cell-based; conditions: Colletotrichum orbiculare; 20 ppm in the applied formulation; liquid culture (PDB), growth inhibition measured photometrically after 3 to 4 days; compared to untreated control; read-out: disease control
In short: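 Photometric read-out of fungal growth after 2–7 days, expressed as percent antifungal activity versus untreated check. Cryo-stored conidia in PDB; compound at 20 ppm; dark, 24 °C, 96% RH.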

CC(C)N(Cc1ccc(-c2noc(C(F)(F)F)n2)cc1)C(=O)C1(C)CC1 [Compound 1.677, N-isopropyl-1-methyl-N-[[4-[5-(trifluoromethyl)-1,2,4-oxadiazol-3-yl]phenyl]methyl]-cyclopropane-carboxamide]
≥ 80%: pest or weed control at 200 ppm [1] | pest or weed control at 200 ppm [2] | pest or weed control at 200 ppm (Phakopsora Pachyrhizi) | inhibition of growth at 20 ppm [3]

CCON(Cc1ccc(-c2noc(C(F)(F)F)n2)cc1)C(=O)C1(C)CC1 [Compound 1.621, N-ethoxy-1-methyl-N-[[4-[5-(trifluoromethyl)-1,2,4-oxadiazol-3-yl]phenyl]methyl]-cyclopropane-carboxamide]
≥ 80%: pest or weed control at 200 ppm [1] | pest or weed control at 200 ppm [2] | pest or weed control at 200 ppm (Phakopsora Pachyrhizi) | inhibition of growth at 20 ppm [3]

CON(Cc1ccc(-c2noc(C(F)(F)F)n2)cc1)C(=O)N(C)C [Compound 3.5, 1-methoxy-3,3-dimethyl-1-[[4-[5-(trifluoromethyl)-1,2,4-oxadiazol-3-yl]phenyl]methyl]urea]
≥ 80%: pest or weed control at 200 ppm [1] | pest or weed control at 200 ppm [2] | pest or weed control at 200 ppm (Phakopsora Pachyrhizi) | inhibition of growth at 20 ppm [3]

CCCN(Cc1ccc(-c2noc(C(F)(F)F)n2)cc1)C(=O)C1(C#N)CC1 [Compound 1.665, 1-cyano-N-propyl-N-[[4-[5-(trifluoromethyl)-1,2,4-oxadiazol-3-yl]phenyl]methyl]-cyclopropane-carboxamide]
≥ 80%: pest or weed control at 200 ppm [1] | pest or weed control at 200 ppm [2] | pest or weed control at 200 ppm (Phakopsora Pachyrhizi) | inhibition of growth at 20 ppm [3]

CON(Cc1ccc(-c2noc(C(F)(F)F)n2)cc1)C(=O)C(C)O (centres unmarked) [Compound 1.786, 2-hydroxy-N-methoxy-N-[[4-[5-(trifluoromethyl)-1,2,4-oxadiazol-3-yl]phenyl]methyl]-propanamide]
≥ 80%: pest or weed control at 200 ppm [1] | pest or weed control at 200 ppm [2] | pest or weed control at 200 ppm (Phakopsora Pachyrhizi) | inhibition of growth at 20 ppm [3]

C#CCN(Cc1ccc(-c2noc(C(F)(F)F)n2)cc1)C(=O)CCOC [Compound 1.173, 3-methoxy-N-prop-2-ynyl-N-[[4-[5-(trifluoromethyl)-1,2,4-oxadiazol-3-yl]phenyl]methyl]-propanamide]
≥ 80%: pest or weed control at 200 ppm [1] | pest or weed control at 200 ppm [2] | pest or weed control at 200 ppm (Phakopsora Pachyrhizi) | inhibition of growth at 20 ppm [3]

CC(=O)ON(Cc1ccc(-c2noc(C(F)(F)F)n2)cc1)C(C)=O [Compound 1.776, (acetyl-[[4-[5-(trifluoromethyl)-1,2,4-oxadiazol-3-yl]phenyl]methyl]-amino] acetate]
≥ 80%: pest or weed control at 200 ppm [1] | pest or weed control at 200 ppm [2] | pest or weed control at 200 ppm (Phakopsora Pachyrhizi) | inhibition of growth at 20 ppm [3]

C=CCN(Cc1ccc(-c2noc(C(F)(F)F)n2)cc1)C(=O)C1CC1C (centres unmarked) [Compound 1.480, N-allyl-2-methyl-N-[[4-[5-(trifluoromethyl)-1,2,4-oxadiazol-3-yl]phenyl]methyl]-cyclopropane-carboxamide]
≥ 80%: pest or weed control at 200 ppm [1] | pest or weed control at 200 ppm [2] | pest or weed control at 200 ppm (Phakopsora Pachyrhizi) | inhibition of growth at 20 ppm [3]

COCCN(Cc1ccc(-c2noc(C(F)(F)F)n2)cc1)C(=O)C1(C)CC1 [Compound 1.344, N-(2-methoxyethyl)-1-methyl-N-[[4-[5-(trifluoromethyl)-1,2,4-oxadiazol-3-yl]phenyl]methyl]-cyclopropane-carboxamide]
≥ 80%: pest or weed control at 200 ppm [1] | pest or weed control at 200 ppm [2] | pest or weed control at 200 ppm (Phakopsora Pachyrhizi) | inhibition of growth at 20 ppm [3]

CCC(=O)N(Cc1ccc(-c2noc(C(F)(F)F)n2)cc1)Cc1ccco1 [Compound 1.457, N-(2-furylmethyl)-N-[[4-[5-(trifluoromethyl)-1,2,4-oxadiazol-3-yl]phenyl]methyl]-propanamide]
≥ 80%: pest or weed control at 200 ppm [1] | pest or weed control at 200 ppm [2] | pest or weed control at 200 ppm (Phakopsora Pachyrhizi) | inhibition of growth at 20 ppm [3]

CC1(C)CC1C(=O)N(Cc1ccc(-c2noc(C(F)(F)F)n2)cc1)C1CC1 (centres unmarked) [Compound 1.124, N-cyclopropyl-2,2-dimethyl-N-[[4-[5-(trifluoromethyl)-1,2,4-oxadiazol-3-yl]phenyl]methyl]-cyclopropane-carboxamide]
≥ 80%: pest or weed control at 200 ppm [1] | pest or weed control at 200 ppm [2] | pest or weed control at 200 ppm (Phakopsora Pachyrhizi) | inhibition of growth at 20 ppm [3]

CCON(Cc1ccc(-c2noc(C(F)(F)F)n2)cc1)C(=O)CCCOC [Compound 1.625, N-ethoxy-4-methoxy-N-[[4-[5-(trifluoromethyl)-1,2,4-oxadiazol-3-yl]phenyl]methyl]-butanamide]
≥ 80%: pest or weed control at 200 ppm [1] | pest or weed control at 200 ppm [2] | pest or weed control at 200 ppm (Phakopsora Pachyrhizi) | inhibition of growth at 20 ppm [3]

CON(Cc1ccc(-c2noc(C(F)(F)F)n2)cc1)C(=O)Nc1ccccc1 [Compound 3.8, 1-methoxy-3-phenyl-1-[[4-[5-(trifluoromethyl)-1,2,4-oxadiazol-3-yl]phenyl]methyl]urea]
≥ 80%: pest or weed control at 200 ppm [1] | pest or weed control at 200 ppm [2] | pest or weed control at 200 ppm (Phakopsora Pachyrhizi) | inhibition of growth at 20 ppm [3]

CCCN(Cc1ccc(-c2noc(C(F)(F)F)n2)cc1)C(=O)CC1CC1 [Compound 1.669, 2-cyclopropyl-N-propyl-N-[[4-[5-(trifluoromethyl)-1,2,4-oxadiazol-3-yl]phenyl]methyl]-acetamide]
≥ 80%: pest or weed control at 200 ppm [1] | pest or weed control at 200 ppm [2] | pest or weed control at 200 ppm (Phakopsora Pachyrhizi) | inhibition of growth at 20 ppm [3]

C=CCN(Cc1ccc(-c2noc(C(F)(F)F)n2)cc1)C(=O)CCC [Compound 1.485, N-allyl-N-[[4-[5-(trifluoromethyl)-1,2,4-oxadiazol-3-yl]phenyl]methyl]-butanamide]
≥ 80%: pest or weed control at 200 ppm [1] | pest or weed control at 200 ppm [2] | pest or weed control at 200 ppm (Phakopsora Pachyrhizi) | inhibition of growth at 20 ppm [3]

CCC(C)N(Cc1ccc(-c2noc(C(F)(F)F)n2)cc1)C(=O)COCCOC (centres unmarked) [Compound 1.384, 2-(2-methoxyethoxy)-N-sec-butyl-N-[[4-[5-(trifluoromethyl)-1,2,4-oxadiazol-3-yl]phenyl]methyl]-acetamide]
≥ 80%: pest or weed control at 200 ppm [1] | pest or weed control at 200 ppm [2] | pest or weed control at 200 ppm (Phakopsora Pachyrhizi) | inhibition of growth at 20 ppm [3]

CC(C)C(=O)N(Cc1ccc(-c2noc(C(F)(F)F)n2)cc1)CC1CCCO1 (centres unmarked) [Compound 1.412, 2-methyl-N-(tetrahydrofuran-2-ylmethyl)-N-[[4-[5-(trifluoromethyl)-1,2,4-oxadiazol-3-yl]phenyl]methyl]-propanamide]
≥ 80%: pest or weed control at 200 ppm [1] | pest or weed control at 200 ppm [2] | pest or weed control at 200 ppm (Phakopsora Pachyrhizi) | inhibition of growth at 20 ppm [3]

N#CCC(=O)N(Cc1ccc(-c2noc(C(F)(F)F)n2)cc1)C1CC1 [Compound 1.146, 2-cyano-N-cyclopropyl-N-[[4-[5-(trifluoromethyl)-1,2,4-oxadiazol-3-yl]phenyl]methyl]-acetamide]
≥ 80%: pest or weed control at 200 ppm [1] | pest or weed control at 200 ppm [2] | pest or weed control at 200 ppm (Phakopsora Pachyrhizi) | inhibition of growth at 20 ppm [3]

CN(Cc1ccc(-c2noc(C(F)(F)F)n2)cc1)C(=O)COC(F)F [Compound 1.595, 2-(difluoromethoxy)-N-methyl-N-[[4-[5-(trifluoromethyl)-1,2,4-oxadiazol-3-yl]phenyl]methyl]-acetamide]
≥ 80%: pest or weed control at 200 ppm [1] | pest or weed control at 200 ppm [2] | pest or weed control at 200 ppm (Phakopsora Pachyrhizi) | inhibition of growth at 20 ppm [3]

CCON(Cc1ccc(-c2noc(C(F)(F)F)n2)cc1)C(=O)COC [Compound 1.567, N-ethoxy-2-methoxy-N-[[4-[5-(trifluoromethyl)-1,2,4-oxadiazol-3-yl]phenyl]methyl]-acetamide]
≥ 80%: pest or weed control at 200 ppm [1] | pest or weed control at 200 ppm [2] | pest or weed control at 200 ppm (Phakopsora Pachyrhizi) | inhibition of growth at 20 ppm [3]

N#CC1(C(=O)N(Cc2ccc(-c3noc(C(F)(F)F)n3)cc2)CC(F)(F)F)CC1 [Compound 1.702, 1-cyano-N-(2,2,2-trrfluoroethyl)-N-[[4-[5-(trifluoromethyl)-1,2,4-oxadiazol-3-yl]phenyl]methyl]-cyclopropane-carboxamide]
≥ 80%: pest or weed control at 200 ppm [1] | pest or weed control at 200 ppm [2] | pest or weed control at 200 ppm (Phakopsora Pachyrhizi) | inhibition of growth at 20 ppm [3]

C#CCN(Cc1ccc(-c2noc(C(F)(F)F)n2)cc1)C(=O)C(C)C [Compound 1.155, 2-methyl-N-prop-2-ynyl-N-[[4-[5-(trifluoromethyl)-1,2,4-oxadiazol-3-yl]phenyl]methyl]-propanamide]
≥ 80%: pest or weed control at 200 ppm [1] | pest or weed control at 200 ppm [2] | pest or weed control at 200 ppm (Phakopsora Pachyrhizi) | inhibition of growth at 20 ppm [3]

CN(Cc1ccc(-c2noc(C(F)(F)F)n2)cc1)C(=O)C(C)(C)O [Compound 1.781, 2-hydroxy-N,2-dimethyl-N-[[4-[5-(trifluoromethyl)-1,2,4-oxadiazol-3-yl]phenyl]methyl]-propanamide]
≥ 80%: pest or weed control at 200 ppm [1] | pest or weed control at 200 ppm [2] | pest or weed control at 200 ppm (Phakopsora Pachyrhizi) | inhibition of growth at 20 ppm [3]
